Drawing on patent US20120157452A1, “1H-PYRAZOLO[3,4-B] PYRIDINE COMPOUNDS FOR INHIBITING RAF KINASE” (GENENTECH, INC., priority 2009, published 2012), this text covers IC50 for 27 compounds.

Each structure is given as a SMILES string.

In the test the target is T1, V600E full-length B-Raf (Homo sapiens, UniProt P15056, V600E).
T1 construct: made in house; host or cells: Sf9 insect cells (baculovirus)
Put plainly: B-Raf IC50 assay: incorporation of radio labeled phosphate from [γ-33P]ATP into FSBA-modified wild-type MEK. Type of test: biochemical. An excerpt: Determining the activity of Raf in the sample is possible by a number of direct and indirect detection methods (US 2004/0082014). Activity of human recombinant B-Raf protein may be assessed in vitro by assay of the incorporation of radio labeled phosphate to recombinant MAP kinase (MEK), a known physiologic substrate of B-Raf, according to US 2004/0127496 and WO 03/022840. The activity/inhibition of V600E full-length B-Raf was estimated by measuring the incorporation of radio labeled phosphate from [γ-^33]ATP into FSBA-modified wild-type MEK (see Biological Example 1).
Activity of human recombinant B-Raf protein may be assessed in vitro by assay of the incorporation of radio labeled phosphate to recombinant MAP kinase (MEK), a known physiologic substrate of B-Raf, according to US 2004/0127496 and WO 03/022840. Catalytically active human recombinant B-Raf protein is obtained by purification from sf9 insect cells infected with a human B-Raf recombinant baculovirus expression vector.
The activity/inhibition of V600E full-length B-Raf was estimated by measuring the incorporation of radio labeled phosphate from [γ-^33]ATP into FSBA-modified wild-type MEK. The 30-μL, assay mixtures contained 25 mM Na Pipes, pH 7.2, 100 mM KCl, 10 mM MgCl2, 5 mM β-glycerophosphate, 100 μM Na Vanadate, 4 μM ATP, 500 nCi [γ-^33P]ATP, 1 μM FSBA-MEK and 20 nM V600E full-length B-Raf. Incubations were carried out at 22° C. in a Costar 3365 plate (Corning). Prior to the assay, the B-Raf and FSBA-MEK were preincubated together in assay buffer at 1.5× (20 μL of 30 nM and 1.5 μM, respectively) for 15 minutes, and the assay was initiated by the addition of 10 μL of […]. Following the 60-minute incubation, the assay mixtures were quenched by the addition of 100 μL of 25% TCA, the plate was mixed on a rotary shaker for 1 minute, and the product was captured on a Perkin-Elmer GF/B filter plate using a Tomtec Mach III Harvester. After sealing the bottom of the plate, 35 μL of Bio-Safe II (Research Products International) scintillation cocktail were added to each well and the plate was top-sealed and counted in a Topcount NXT (Packard).

[1] abbreviates: 4 μM ATP, 60-minute incubation, representative data of multiple tests.

T1 sequence (P15056 whole entry V600E): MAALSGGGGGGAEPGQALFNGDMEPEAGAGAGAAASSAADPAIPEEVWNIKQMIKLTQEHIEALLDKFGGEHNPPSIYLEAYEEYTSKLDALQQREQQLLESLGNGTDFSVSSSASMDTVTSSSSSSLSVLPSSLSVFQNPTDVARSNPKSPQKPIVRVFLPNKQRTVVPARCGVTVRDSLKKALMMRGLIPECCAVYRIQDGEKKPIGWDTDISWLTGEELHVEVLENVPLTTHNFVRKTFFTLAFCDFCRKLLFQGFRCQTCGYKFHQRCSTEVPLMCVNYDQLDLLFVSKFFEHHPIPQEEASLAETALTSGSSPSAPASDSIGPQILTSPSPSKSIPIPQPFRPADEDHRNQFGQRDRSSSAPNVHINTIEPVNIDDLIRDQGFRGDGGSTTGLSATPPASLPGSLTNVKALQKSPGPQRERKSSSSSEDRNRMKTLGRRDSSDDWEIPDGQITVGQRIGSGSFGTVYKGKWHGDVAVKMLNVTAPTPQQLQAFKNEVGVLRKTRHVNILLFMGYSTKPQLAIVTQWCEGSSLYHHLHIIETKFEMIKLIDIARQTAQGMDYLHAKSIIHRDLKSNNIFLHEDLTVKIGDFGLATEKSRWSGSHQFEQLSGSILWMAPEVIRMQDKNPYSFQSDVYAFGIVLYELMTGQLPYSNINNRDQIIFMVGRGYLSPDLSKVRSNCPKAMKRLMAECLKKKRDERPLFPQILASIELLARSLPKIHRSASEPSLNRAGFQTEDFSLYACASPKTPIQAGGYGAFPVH

On to `COc1n[nH]c2ncc(NC(=O)c3c(C)ccc(OCc4ccc(Cl)cn4)c3F)cc12` [Example 74, 3-((5-chloropyridin-2-yl)methoxy)-2-fluoro-N-(3-methoxy-1H-pyrazolo[3,4-b]pyridin-5-yl)-6-methylbenzamide], for which the IC50 (as a rule, the concentration that gives 50% inhibition) under setting [1] came to 0.51 nM and the IC50 (bound stated) is less than 100 nM.

For `COc1n[nH]c2ncc(NC(=O)c3c(Cl)ccc(OCc4cccc(F)c4)c3F)cc12` [Example 28, 6-chloro-2-fluoro-3-(3-fluorobenzyloxy)-N-(3-methoxy-1H-pyrazolo[3,4-b]pyridin-5-yl)benzamide], the IC50 was 0.84 nM under setting [1] and less than 100 nM (bound stated).

Consider `COc1n[nH]c2ncc(NC(=O)c3c(Cl)ccc(OCc4cccc5[nH]ccc45)c3F)cc12` [Example 76, 3-((1H-indol-4-yl)methoxy)-6-chloro-2-fluoro-N-(3-methoxy-1H-pyrazolo[3,4-b]pyridin-5-yl)benzamide], for which the IC50 by setting is: under setting [1], 13 nM; (bound stated) less than 100 nM. For `CC(C)c1n[nH]c2ncc(NC(=O)c3c(Cl)ccc(OCc4ccccc4)c3F)cc12` [Example 10, 3-(benzyloxy)-6-chloro-2-fluoro-N-(3-isopropyl-1H-pyrazolo[3,4-b]pyridin-5-yl)benzamide], the IC50 is 2.29 nM under setting [1] and less than 100 nM (bound stated). `COc1n[nH]c2ncc(NC(=O)c3c(Cl)ccc(OCc4ccco4)c3F)cc12` [Example 54, 6-chloro-2-fluoro-3-(furan-2-ylmethoxy)-N-(3-methoxy-1H-pyrazolo[3,4-b]pyridin-5-yl)benzamide] showed an IC50 under setting [1] of 3.36 nM and an IC50 (bound stated) of less than 100 nM. In the same order, the values of `COc1n[nH]c2ncc(NC(=O)c3c(Cl)ccc(OCc4ccccc4Cl)c3F)cc12` [Example 60, 6-chloro-3-(2-chlorobenzyloxy)-2-fluoro-N-(3-methoxy-1H-pyrazolo[3,4-b]pyridin-5-yl)benzamide] are 1.28 nM and less than 100 nM.

`COc1n[nH]c2ncc(NC(=O)c3c(C)ccc(OCc4ccc(C(F)(F)F)cc4)c3F)cc12` [Example 73, 2-fluoro-N-(3-methoxy-1H-pyrazolo[3,4-b]pyridin-5-yl)-6-methyl-3-(4-(trifluoromethyl)benzyloxy)benzamide]: the IC50 is 0.86 nM under setting [1] and less than 100 nM (bound stated). Consider `CC(=O)Nc1n[nH]c2ncc(NC(=O)c3c(Cl)ccc(OCc4ccccc4)c3F)cc12` [Example 78, N-(3-acetamido-1H-pyrazolo[3,4-b]pyridin-5-yl)-3-(benzyloxy)-6-chloro-2-fluorobenzamide], for which the IC50 was 5.19 nM under setting [1] and less than 100 nM (bound stated). Consider `COc1n[nH]c2ncc(NC(=O)c3c(Cl)ccc(OCc4ccc(C)cn4)c3F)cc12` [Example 44, 6-chloro-2-fluoro-N-(3-methoxy-1H-pyrazolo[3,4-b]pyridin-5-yl)-3-((5-methylpyridin-2-yl)methoxy)benzamide], for which the IC50 runs as follows: under setting [1], 0.64 nM; (bound stated) less than 100 nM.

`COc1n[nH]c2ncc(NC(=O)c3c(C)ccc(OCc4ccc(Cl)cc4)c3F)cc12` [Example 72, 3-(4-chlorobenzyloxy)-2-fluoro-N-(3-methoxy-1H-pyrazolo[3,4-b]pyridin-5-yl)-6-methylbenzamide]: the IC50 is, setting by setting: under setting [1], 0.4 nM; (bound stated) less than 100 nM. In the same order, the values of `COc1n[nH]c2ncc(NC(=O)c3c(Cl)ccc(OCc4ccc(Cl)cc4F)c3F)cc12` [Example 66, 6-chloro-3-(4-chloro-2-fluorobenzyloxy)-2-fluoro-N-(3-methoxy-1H-pyrazolo[3,4-b]pyridin-5-yl)benzamide] are 1.5 nM and less than 100 nM. In the case of `COc1n[nH]c2ncc(NC(=O)c3cc(OCc4ccccc4)ccc3C)cc12` [Example 27, 5-(benzyloxy)-N-(3-methoxy-1H-pyrazolo[3,4-b]pyridin-5-yl)-2-methylbenzamide], the IC50 is, setting by setting: under setting [1], 2.95 nM; (bound stated) less than 100 nM. For the compound `COc1n[nH]c2ncc(NC(=O)c3c(Cl)ccc(OCc4nccs4)c3F)cc12` [Example 53, 6-chloro-2-fluoro-N-(3-methoxy-1H-pyrazolo[3,4-b]pyridin-5-yl)-3-(thiazol-2-ylmethoxy)benzamide], the concentration for half-maximal inhibition (IC50) is 13.2 nM under setting [1] and less than 100 nM (bound stated).

As to `COc1n[nH]c2ncc(NC(=O)c3c(Cl)ccc(OCc4ccc5c(c4)CCO5)c3F)cc12` [Example 65], the concentration for half-maximal inhibition (IC50) runs as follows: under setting [1], 0.63 nM; (bound stated) less than 100 nM. For the compound `COc1n[nH]c2ncc(NC(=O)c3c(Cl)ccc(OCc4ccc5c(c4)OCO5)c3F)cc12` [Example 63, 3-(benzo[d][1,3]dioxol-5-ylmethoxy)-6-chloro-2-fluoro-N-(3-methoxy-1H-pyrazolo[3,4-b]pyridin-5-yl)benzamide], the IC50 is 1.71 nM under setting [1] and less than 100 nM (bound stated). For the compound `COc1n[nH]c2ncc(NC(=O)c3c(Cl)ccc(OCc4scnc4C)c3F)cc12` [Example 52, 6-chloro-2-fluoro-N-(3-methoxy-1H-pyrazolo[3,4-b]pyridin-5-yl)-3-((4-methylthiazol-5-yl)methoxy)benzamide], the IC50 is 70.4 nM under setting [1] and less than 100 nM (bound stated). Consider `CN(C)c1n[nH]c2ncc(NC(=O)c3c(Cl)ccc(OCc4ccccc4)c3F)cc12` [Example 7, 3-(benzyloxy)-6-chloro-N-(3-(dimethylamino)-1H-pyrazolo[3,4-b]pyridin-5-yl)-2-fluorobenzamide], for which the IC50 reads like this: under setting [1], 4.76 nM; (bound stated) less than 100 nM. Turning to `O=C(Nc1cnc2[nH]nc(C(F)(F)F)c2c1)c1c(Cl)ccc(OCc2ccccc2)c1F` [Example 8, 3-(benzyloxy)-6-chloro-2-fluoro-N-(3-(trifluoromethyl)-1H-pyrazolo[3,4-b]pyridin-5-yl)benzamide], the IC50 runs as follows: under setting [1], 5.83 nM; (bound stated) less than 100 nM. In the same order, the values of `COc1n[nH]c2ncc(NC(=O)c3c(Cl)ccc(OCc4ccc(C#N)cc4)c3F)cc12` [Example 51, 6-chloro-3-(4-cyanobenzyloxy)-2-fluoro-N-(3-methoxy-1H-pyrazolo[3,4-b]pyridin-5-yl)benzamide] are 2.01 nM and less than 100 nM. As for `COc1n[nH]c2ncc(NC(=O)c3c(Cl)ccc(OCc4cncnc4)c3F)cc12` [Example 68, 6-chloro-2-fluoro-N-(3-methoxy-1H-pyrazolo[3,4-b]pyridin-5-yl)-3-(pyrimidin-5-ylmethoxy)benzamide], the IC50 under setting [1] was 658 nM.

As to `COc1n[nH]c2ncc(NC(=O)c3c(F)ccc(OCc4ccccc4)c3Cl)cc12` [Example 33, 3-(benzyloxy)-2-chloro-6-fluoro-N-(3-methoxy-1H-pyrazolo[3,4-b]pyridin-5-yl)benzamide], the IC50 was 17.2 nM under setting [1] and less than 100 nM (bound stated). `COc1n[nH]c2ncc(NC(=O)c3c(Cl)ccc(OCc4ccc5ncccc5c4)c3F)cc12` [Example 69, 6-chloro-2-fluoro-N-(3-methoxy-1H-pyrazolo[3,4-b]pyridin-5-yl)-3-(quinolin-6-ylmethoxy)benzamide]: the IC50 reads like this: under setting [1], 1.66 nM; (bound stated) less than 100 nM. As for `CCOc1n[nH]c2ncc(NC(=O)c3c(Cl)ccc(OCc4ccccc4)c3F)cc12` [Example 14, 3-(benzyloxy)-6-chloro-N-(3-ethoxy-1H-pyrazolo[3,4-b]pyridin-5-yl)-2-fluorobenzamide], the IC50 by setting is: under setting [1], 0.93 nM; (bound stated) less than 100 nM. Take `COc1n[nH]c2ncc(NC(=O)c3cc(OCc4ccccc4)ccc3Cl)cc12` [Example 23, 5-(benzyloxy)-2-chloro-N-(3-methoxy-1H-pyrazolo[3,4-b]pyridin-5-yl)benzamide]: the IC50 was 4 nM under setting [1] and less than 100 nM (bound stated). For the compound `COc1n[nH]c2ncc(NC(=O)c3c(Cl)ccc(OCc4cnn(C)c4)c3F)cc12` [Example 70, 6-chloro-2-fluoro-N-(3-methoxy-1H-pyrazolo[3,4-b]pyridin-5-yl)-3-((1-methyl-1H-pyrazol-4-yl)methoxy)benzamide], the IC50 is 25.7 nM under setting [1] and less than 100 nM (bound stated).

For the compound `COc1n[nH]c2ncc(NC(=O)c3cccc(OCc4ccccc4)c3C)cc12` [Example 22, 3-(benzyloxy)-N-(3-methoxy-1H-pyrazolo[3,4-b]yridine-5-yl)-2-methylbenzamide], under setting [1], the IC50 was determined as 585 nM. Turning to `O=C(Nc1cnc2[nH]nc(-c3ccco3)c2c1)c1c(Cl)ccc(OCc2ccccc2)c1F` [Example 9, 3-(benzyloxy)-6-chloro-2-fluoro-N-(3-(furan-2-yl)-1H-pyrazolo[3,4-b]pyridin-5-yl)benzamide], the IC50 reads like this: under setting [1], 1.17 nM; (bound stated) less than 100 nM.
